{"source": "patent US20220315895A1", "about": "“METHODS OF MAKING OLIGOPOTENT AND UNIPOTENT PRECURSORS” (Transfusion Health, LLC, priority 2019, published 2022)", "key": {"[1]": {"tested_on": "CD34+ cells from cord blood", "experiment": "Expansion of cord blood CD34+ cells, seven-day culture (Example 35)", "assay_type": "cell-based, human", "conditions": "normalized fold change days 1 to 7", "protocol": "CD34+ cells from cord blood were purchased from STEMCELL Technologies. Primary human CD34+ cells were isolated from cord blood samples using positive immunomagnetic separation techniques. Cells were thawed and gradually brought to room temperature. Samples were washed, then placed in overnight culture in StemSpan with 100 ng/ml each of FLT3L, TPO, SCF, and TL-6. Eighteen to twenty-four hours later (day 1), cells were counted and immunophenotyped (flow cytometry on an Invitrogen Attune N×T cytometer).\nApproximately 1000 live cells were plated into each well of 96-well plates; exact cell numbers dispensed per well were quantified with flow cytometry for later calculations.\nMedia for testing compounds of Formula I was prepared using Alpha MEM without phenol red, 10% (v/v) heat inactivated fetal bovine serum. Culture conditions also included an antibiotic solution that includes penicillin, streptomycin, and amphotericin B to avoid contamination. Additional media components and concentrations used for the compounds tested are described in Table 5.\nAll incubations for this experiment took place at 3% oxygen (controlled by nitrogen) and 5% CO2. Following seven days of culture, cells from wells were collected and phenotypes were analyzed (flow cytometry on an Invitrogen Attune N×T cytometer).\nTable 6 below, summarizes the relative expansive effect of the screened compounds at the indicated concentration. The data in Table 6 is reported as the relative expansive effect. The relative expansive effect is a normalized value of the fold changes shown in each of the figures. It is calculated as shown below: […]"}, "[2]": {"tested_on": "CD34+ cells isolated from donor peripheral blood", "experiment": "Enhancement of HSCs derived from non-mobilized peripheral blood with compounds of Formula I (Example 33)", "assay_type": "cell-based", "conditions": "normalized fold change days 2 to 7", "protocol": "CD34+ cells were isolated from donor peripheral blood. Standard buffy coat separation using ficoll paque was performed. Cells were pelleted and incubated with unlabeled CD64 antibody. Cells then underwent negative depletion using biotinylated CD2, CD3, CD4, CD5, CD8, CD11b, CD14, CD16, CD19, CD20, CD45RA, CD56, CD235 (in some examples CD15, CD25 and other lineage specific antibodies may also be used). Cells which bind these antibodies are depleted using streptavidin beads. The enriched progenitor pool then undergoes cell sorting for CD34+.\nIsolated CD34+ cells were incubated in an in vitro culture media of Alpha MEM without phenol red with 10% (v/v) heat inactivated fetal bovine serum (FBS). When testing compounds of Formula I, two internal controls were used: a positive control (+SF conditions) and a baseline control (i.e. basic conditions (“cytokines only”)). The media components and concentrations used for the compounds tested are described in [0563] Table 2. The culture also included an antibiotic solution that includes penicillin, streptomycin, and amphotericin B to avoid contamination. Controls were included because the amount of expansion in samples obtained varies from individual to individual.\nCultures were incubated at […] (controlled by nitrogen) and 5% CO2.\nSmall molecule components were added separately and fresh each time the media needs to be refreshed. Cytokines can be stored together. Media renewal should occur at least every few days.\nOn the days indicated one-half of the volume of the cell culture was removed for data analysis (flow cytometry using a BD FACS ARIA II). The culture volume was replenished with fresh media according to the conditions tested. The data reported accounts for the dilution factor introduced in this procedure.\nSeparate experiments were performed for each compound tested (Compound 1.001-1.023).\nTable 3, below, summarizes the relative expansive effect of Compound 1.001 to 1.023 (sample compounds) at the indicated concentration. The data in Table 3 is reported as the relative expansive effect. The relative expansive effect is a normalized value of the fold changes shown in each of FIG. 1-FIG. 23. It is calculated as shown below: […]"}}, "data": [{"smiles": "Nc1ccc2c(c1)C(=O)c1ccccc1-2", "note": "[Compound 1.035]", "values": [{"measurement": "CD90 effect (relative expansive effect on CD34+/CD133+/CD90+ cells)", "setting": "[1]; sample compound 10 μM", "result": "+++ (1.8 ≤ x < 2.16)"}, {"measurement": "CD133 effect (relative expansive effect on CD34+/CD133+ cells)", "setting": "[1]; sample compound 10 μM", "result": "+++ (1.8 ≤ x < 2.16)"}]}, {"smiles": "CC(=O)Nc1ccc2c(c1)C(=O)c1cc(NC(C)=O)ccc1-2", "note": "[Compound 1.012, N,N′-(9-oxo-9H-fluorene-2,7-diyl)diacetamide]", "values": [{"measurement": "CD90 effect (relative expansive effect on CD34+/CD133+/CD90+ cells)", "setting": "[2]; sample compound 0.25 μM", "result": "++ (0.2 ≤ x < 0.55)"}, {"measurement": "CD133 effect (relative expansive effect on CD34+/CD133+ cells)", "setting": "[2]; sample compound 0.25 μM", "result": "++ (0.2 ≤ x < 0.55)"}]}, {"smiles": "O=C(Nc1ccc2c(c1)C(O)c1ccccc1-2)C1CCCCO1", "note": "(stereo not shown) [Compound 1.031, N-(9-hydroxy-9H-fluoren-2-yl)tetrahydro-2H-pyran-2-carboxamide]", "values": [{"measurement": "CD90 effect (relative expansive effect on CD34+/CD133+/CD90+ cells)", "setting": "[1]; sample compound 10 μM", "result": "++ (1.44 ≤ x < 1.8)"}, {"measurement": "CD133 effect (relative expansive effect on CD34+/CD133+ cells)", "setting": "[1]; sample compound 10 μM", "result": "+++ (1.8 ≤ x < 2.16)"}]}, {"smiles": "CCOC1c2ccccc2-c2ccc(NC(C)=O)cc21", "note": "(stereo not shown) [Compound 1.021, N-(9-ethoxy-9H-fluoren-2-yl)acetamide]", "values": [{"measurement": "CD90 effect (relative expansive effect on CD34+/CD133+/CD90+ cells)", "setting": "[1]; sample compound 8 μM", "result": "+ (x < 1.44)"}, {"measurement": "CD133 effect (relative expansive effect on CD34+/CD133+ cells)", "setting": "[1]; sample compound 8 μM", "result": "+ (x < 1.44)"}, {"measurement": "CD90 effect (relative expansive effect on CD34+/CD133+/CD90+ cells)", "setting": "[2]; sample compound 8 μM", "result": "++ (0.2 ≤ x < 0.55)"}, {"measurement": "CD133 effect (relative expansive effect on CD34+/CD133+ cells)", "setting": "[2]; sample compound 8 μM", "result": "++ (0.2 ≤ x < 0.55)"}]}, {"smiles": "CC(C)(C)OC(=O)Nc1ccc2c(c1)C(=O)c1ccccc1-2", "note": "[Compound 1.003, tert-butyl (9-oxo-9H-fluoren-2-yl)carbamate]", "values": [{"measurement": "CD90 effect (relative expansive effect on CD34+/CD133+/CD90+ cells)", "setting": "[2]; sample compound 0.5 μM", "result": "++ (0.2 ≤ x < 0.55)"}, {"measurement": "CD133 effect (relative expansive effect on CD34+/CD133+ cells)", "setting": "[2]; sample compound 0.5 μM", "result": "++ (0.2 ≤ x < 0.55)"}]}, {"smiles": "CC(C)(C)C(=O)Nc1ccc2c(c1)C(=O)c1ccc(O)cc1-2", "note": "[Compound 1.016, N-(6-hydroxy-9-oxo-9H-fluoren-2-yl)pivalamide]", "values": [{"measurement": "CD90 effect (relative expansive effect on CD34+/CD133+/CD90+ cells)", "setting": "[2]; sample compound 16 μM", "result": "++++ (0.9 ≤ x < 1.25)"}, {"measurement": "CD133 effect (relative expansive effect on CD34+/CD133+ cells)", "setting": "[2]; sample compound 16 μM", "result": "++ (0.2 ≤ x < 0.55)"}]}, {"smiles": "CC(=O)OC1c2ccccc2-c2ccc(NC(=O)C(C)(C)C)cc21", "note": "(stereo not shown) [Compound 1.024, 2-pivalamide-9H-fluoren-9-yl acetate]", "values": [{"measurement": "CD90 effect (relative expansive effect on CD34+/CD133+/CD90+ cells)", "setting": "[1]; sample compound 8 μM", "result": "++++ (2.16 ≤ x < 2.52)"}, {"measurement": "CD133 effect (relative expansive effect on CD34+/CD133+ cells)", "setting": "[1]; sample compound 8 μM", "result": "+++ (1.8 ≤ x < 2.16)"}]}, {"smiles": "O=C1c2ccccc2-c2ccc([N+](=O)[O-])cc21", "note": "[Compound 1.036]", "values": [{"measurement": "CD90 effect (relative expansive effect on CD34+/CD133+/CD90+ cells)", "setting": "[1]; sample compound 10 μM", "result": "+++ (1.8 ≤ x < 2.16)"}, {"measurement": "CD133 effect (relative expansive effect on CD34+/CD133+ cells)", "setting": "[1]; sample compound 10 μM", "result": "++ (1.44 ≤ x < 1.8)"}]}, {"smiles": "CNc1ccc2c(c1)C(O)c1ccccc1-2", "note": "(stereo not shown) [Compound 1.018, 2-(methylamino)-9H-fluoren-9-ol]", "values": [{"measurement": "CD90 effect (relative expansive effect on CD34+/CD133+/CD90+ cells)", "setting": "[2]; sample compound 4 μM", "result": "++ (0.2 ≤ x < 0.55)"}, {"measurement": "CD133 effect (relative expansive effect on CD34+/CD133+ cells)", "setting": "[2]; sample compound 4 μM", "result": "+ (x < 0.2)"}]}, {"smiles": "NC(=O)Nc1ccc2c(c1)C(=O)c1cc(NC(N)=O)ccc1-2", "note": "[Compound 1.011, 1,1′-(9-oxo-9H-fluorene-2,7-diyl)diurea]", "values": [{"measurement": "CD90 effect (relative expansive effect on CD34+/CD133+/CD90+ cells)", "setting": "[2]; sample compound 0.125 μM", "result": "++ (0.2 ≤ x < 0.55)"}, {"measurement": "CD133 effect (relative expansive effect on CD34+/CD133+ cells)", "setting": "[2]; sample compound 0.125 μM", "result": "+ (x < 0.2)"}]}, {"smiles": "COC1c2ccccc2-c2ccc(NC(=O)C(C)(C)C)cc21", "note": "(stereo not shown) [Compound 1.025, N-(9-methoxy-9H-fluoren-2-yl)pivalamide]", "values": [{"measurement": "CD90 effect (relative expansive effect on CD34+/CD133+/CD90+ cells)", "setting": "[1]; sample compound 8 μM", "result": "++++ (2.16 ≤ x < 2.52)"}, {"measurement": "CD133 effect (relative expansive effect on CD34+/CD133+ cells)", "setting": "[1]; sample compound 8 μM", "result": "+++ (1.8 ≤ x < 2.16)"}]}, {"smiles": "O=C(Nc1ccc2c(c1)C(O)c1ccccc1-2)C(Cl)(Cl)Cl", "note": "(stereo not shown) [Compound 1.034, 2,2,2-trichloro-N-(9-hydroxy-9H-fluoren-2-yl)acetamide]", "values": [{"measurement": "CD90 effect (relative expansive effect on CD34+/CD133+/CD90+ cells)", "setting": "[1]; sample compound 10 μM", "result": "+++++ (2.52 ≤ x)"}, {"measurement": "CD133 effect (relative expansive effect on CD34+/CD133+ cells)", "setting": "[1]; sample compound 10 μM", "result": "+++++ (2.52 ≤ x)"}]}, {"smiles": "CC(=O)Nc1ccc2c(c1)C(O)c1ccccc1-2", "note": "(stereo not shown) [Compound 1.029, N-(9-hydroxy-9H-fluoren-2-yl)acetamide]", "values": [{"measurement": "CD90 effect (relative expansive effect on CD34+/CD133+/CD90+ cells)", "setting": "[1]; sample compound 8 μM", "result": "++++ (2.16 ≤ x < 2.52)"}, {"measurement": "CD133 effect (relative expansive effect on CD34+/CD133+ cells)", "setting": "[1]; sample compound 8 μM", "result": "++++ (2.16 ≤ x < 2.52)"}]}]}
